Here are results for 1 compound from patent publication US11066405B2, “Bicyclic compounds and their use in the treatment of cancer” (Tempest Therapeutics, Inc., priority 2017, dated 2021).

Structures are written as SMILES. pIC50: −log10 of the molar value.

The target in this assay is T1, EP4 (Homo sapiens, UniProt P35408).
T1 construct: host or cells: HEK293, stably transfected; also expresses a promiscuous G protein and a clytin variant
The experiment in a line: EP4 Ca2+-flux assay (functional calcium flux assay, stably transfected HEK293 cells). In kind it is cell-based. The settings on record: HEK293 cells stably transfected with EP4; ligand PGE2 10 nM; luminescence readout. How it is done: The compounds in the present disclosure were tested in a functional calcium flux assay using stably transfected HEK293 cells. Cells transfected with EP1, EP2, EP3 and EP4 were purchased from Eurofins Discovery Services (St. Charles, Mo.). Each receptor subtype has an additional promiscuous G protein added in order to couple to the calcium signaling pathway. The parental cell line used also expresses a novel variant of clytin, a calcium-activated photo-protein, to enable sensitive luminescent detection.
Cells were plated at 50,000 cells per well in black, clear bottom 96-well plates. The plated cells were allowed to sit at room temperature for 30 min prior to transferring to a humidified, 37° C., 5% CO2 incubator for 18-24 h. Assay buffer (HBSS with 20 mM HEPES) and loading buffer (assay buffer plus 10 μM Coelenterazine) were prepared on the day of the assay. Assays were performed by aspirating media from the assay plate and washing once with assay buffer, then replacing with loading buffer and allowing the cells to incubate for 1.5 h at room temperature. Compounds were prepared in assay buffer at a 3× final concentration in non-binding plates. Compounds were added to the cell plates and incubated for 30 min at room temperature. The prostanoid receptor ligand PGE2 was prepared at a 4× dilution ratio for a final concentration of 10 nM. Plates were run on a Flexstation™ using a 100 ms integration luminescence protocol for a total of 60 sec with ligand addition at 15 sec. Data were obtained from relative light units as measured by area under the curve.
On the technique in general: Calcium assays in cells follow changes in intracellular calcium, usually with a dye or a luminescent sensor.

T1 sequence (P35408 whole entry): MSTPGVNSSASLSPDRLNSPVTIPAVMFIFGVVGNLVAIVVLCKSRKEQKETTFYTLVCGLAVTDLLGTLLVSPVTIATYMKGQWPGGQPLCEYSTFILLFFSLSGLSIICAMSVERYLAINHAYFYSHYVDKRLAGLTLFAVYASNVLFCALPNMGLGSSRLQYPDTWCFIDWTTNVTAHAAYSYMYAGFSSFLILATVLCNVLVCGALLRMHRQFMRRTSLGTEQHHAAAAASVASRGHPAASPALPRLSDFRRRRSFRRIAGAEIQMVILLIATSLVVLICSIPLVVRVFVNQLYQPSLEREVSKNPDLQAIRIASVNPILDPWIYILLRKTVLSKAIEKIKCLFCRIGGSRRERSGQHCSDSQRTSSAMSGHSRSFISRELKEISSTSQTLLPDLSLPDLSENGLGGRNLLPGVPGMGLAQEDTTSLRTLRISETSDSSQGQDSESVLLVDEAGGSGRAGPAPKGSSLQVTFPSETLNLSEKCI

The term pIC50 denotes −log10 of the IC50, conventionally taken in molar units. Turning to `O=C(O)C[C@]12C[C@](NC(=O)c3cccc4cnn(Cc5ccc(OC(F)(F)F)cc5)c34)(C1)C2` [Example 37, 2-(3-(1-(4-(trifluoromethoxy)benzyl)-1H-indazole-7-carboxamido)bicyclo[1.1.1]pentan-1-yl)acetic Acid], the pIC50 is 7.12.
